ChEMBL document CHEMBL1138608, “The discovery of potent, selective, and orally bioavailable PDE9 inhibitors as potential hypoglycemic agents” (Bioorg Med Chem Lett, 2009)
One block for each compound: values may come before it.

What was measured:
[1] = target: Dual specificity calcium/calmodulin-dependent 3',5'-cyclic nucleotide phosphodiesterase 1C (Homo sapiens, UniProt Q14123); experiment: Inhibition of PDE1c
[2] = target: High affinity cGMP-specific 3',5'-cyclic phosphodiesterase 9A (Homo sapiens, UniProt O76083); experiment: Inhibition of human recombinant PDE9 expressed in SF9 cells by scintillation proximity assay
[3] = target: Dual specificity calcium/calmodulin-dependent 3',5'-cyclic nucleotide phosphodiesterase 1B (Homo sapiens, UniProt Q01064); experiment: Inhibition of PDE1b
[4] = target: Dual specificity calcium/calmodulin-dependent 3',5'-cyclic nucleotide phosphodiesterase 1A (Homo sapiens, UniProt P54750); experiment: Inhibition of PDE1a
[5] = target: High affinity 3',5'-cyclic-AMP phosphodiesterase 7A (Homo sapiens, UniProt Q13946); experiment: Inhibition of PDE7a
[6] = target: High affinity cAMP-specific and IBMX-insensitive 3',5'-cyclic phosphodiesterase 8A (Homo sapiens, UniProt O60658); experiment: Inhibition of PDE8a
Mus musculus [7] = experiment: Reduction of insulin level in ob/ob mouse at 500 mg/kg, po administered by subchronic dosing for 4 days (RVb 23 ng/mL); format: functional; set-up: scale not given: the % may be the effect or the level left
[8] = target: 3',5'-cyclic-AMP phosphodiesterase 4B (Homo sapiens, UniProt Q07343); experiment: Inhibition of PDE4b
[9] = target: 3',5'-cyclic-AMP phosphodiesterase 4A (Homo sapiens, UniProt P27815); experiment: Inhibition of PDE4a
[10] = Inhibition of PDE6
[11] = target: cGMP-specific 3',5'-cyclic phosphodiesterase (Homo sapiens, UniProt O76074); experiment: Inhibition of PDE5
[12] = Inhibition of PDE2
Mus musculus [13] = experiment: Reduction of insulin level in ob/ob mouse at 100 mg/kg, po administered by subchronic dosing for 4 days (RVb 23 ng/mL); format: functional; set-up: scale not given: the % may be the effect or the level left
Mus musculus [14] = experiment: Free plasma concentration at terminal bleed in ob/ob mouse at 100 mg/kg, po administered by subchronic dosing for 4 days after 3 hrs of last dose
[15] = Inhibition of PDE10
Mus musculus [16] = experiment: Reduction of body weight in ob/ob mouse at 500 mg/kg, po administered by subchronic dosing for 4 days (RVb 44 g); format: functional; set-up: scale not given: the % may be the effect or the level left
Mus musculus [17] = experiment: Reduction of body weight in ob/ob mouse at 100 mg/kg, po administered by subchronic dosing for 4 days (RVb 44 g); format: functional; set-up: scale not given: the % may be the effect or the level left
[18] = Inhibition of PDE11
Mus musculus [19] = experiment: Reduction of insulin level in ob/ob mouse at 250 mg/kg, po administered by subchronic dosing for 4 days (RVb 23 ng/mL); format: functional; set-up: scale not given: the % may be the effect or the level left
[20] = target: cGMP-inhibited 3',5'-cyclic phosphodiesterase 3B (Homo sapiens, UniProt Q13370); experiment: Inhibition of PDE3b
Mus musculus [21] = experiment: Reduction of glucose level in ob/ob mouse at 100 mg/kg, po administered by subchronic dosing for 4 days relative to control (RVb 406 mg/dl); format: functional; set-up: scale not given: the % may be the effect or the level left
Mus musculus [22] = experiment: Reduction of glucose level in ob/ob mouse at 250 mg/kg, po administered by subchronic dosing for 4 days (RVb 406 mg/dl); format: functional; set-up: scale not given: the % may be the effect or the level left
[23] = target: High affinity cAMP-specific and IBMX-insensitive 3',5'-cyclic phosphodiesterase 8B (Homo sapiens, UniProt O95263); experiment: Inhibition of PDE8b
[24] = target: cGMP-inhibited 3',5'-cyclic phosphodiesterase 3A (Homo sapiens, UniProt Q14432); experiment: Inhibition of PDE3a
Mus musculus [25] = experiment: Free plasma concentration at terminal bleed in ob/ob mouse at 500 mg/kg, po administered by subchronic dosing for 4 days after 3 hrs of last dose
Mus musculus [26] = experiment: Reduction of glucose level in ob/ob mouse at 500 mg/kg, po administered by subchronic dosing for 4 days (RVb 406 mg/dl); format: functional; set-up: scale not given: the % may be the effect or the level left
Mus musculus [27] = experiment: Free plasma concentration at terminal bleed in ob/ob mouse at 250 mg/kg, po administered by subchronic dosing for 4 days after 3 hrs of last dose
[28] = target: 3',5'-cyclic-AMP phosphodiesterase 7B (Homo sapiens, UniProt Q9NP56); experiment: Inhibition of PDE7b
[29] = target: 3',5'-cyclic-AMP phosphodiesterase 4C (Homo sapiens, UniProt Q08493); experiment: Inhibition of PDE4c
[30] = target: 3',5'-cyclic-AMP phosphodiesterase 4D (Homo sapiens, UniProt Q08499); experiment: Inhibition of PDE4d
Mus musculus [31] = experiment: Reduction of body weight in ob/ob mouse at 250 mg/kg, po administered by subchronic dosing for 4 days (RVb 44 g); format: functional; set-up: scale not given: the % may be the effect or the level left
[32] = Apparent permeability across MDCK cells; settings: dog
in vivo = settings: rat
[33] = Volume of distribution at steady state in rat; settings: in vivo
[34] = Oral bioavailability in rat; settings: in vivo

Sequence of High affinity cGMP-specific 3',5'-cyclic phosphodiesterase 9A (O76083 whole entry): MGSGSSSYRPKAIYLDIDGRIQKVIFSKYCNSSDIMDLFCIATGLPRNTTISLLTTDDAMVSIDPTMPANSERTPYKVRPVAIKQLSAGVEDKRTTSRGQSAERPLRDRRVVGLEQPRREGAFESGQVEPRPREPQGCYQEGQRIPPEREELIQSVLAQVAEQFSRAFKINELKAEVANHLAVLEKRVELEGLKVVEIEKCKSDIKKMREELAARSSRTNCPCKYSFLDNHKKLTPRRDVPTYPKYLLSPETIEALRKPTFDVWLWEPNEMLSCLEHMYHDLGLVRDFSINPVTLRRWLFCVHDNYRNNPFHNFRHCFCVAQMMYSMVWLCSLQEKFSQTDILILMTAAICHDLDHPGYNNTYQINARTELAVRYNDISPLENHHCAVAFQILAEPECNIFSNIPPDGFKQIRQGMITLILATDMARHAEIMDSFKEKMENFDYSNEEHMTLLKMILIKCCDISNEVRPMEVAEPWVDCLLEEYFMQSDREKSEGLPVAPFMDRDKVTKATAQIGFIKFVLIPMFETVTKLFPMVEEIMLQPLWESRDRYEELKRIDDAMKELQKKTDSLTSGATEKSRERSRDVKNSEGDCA
Sequence of 3',5'-cyclic-AMP phosphodiesterase 4D (Q08499 whole entry): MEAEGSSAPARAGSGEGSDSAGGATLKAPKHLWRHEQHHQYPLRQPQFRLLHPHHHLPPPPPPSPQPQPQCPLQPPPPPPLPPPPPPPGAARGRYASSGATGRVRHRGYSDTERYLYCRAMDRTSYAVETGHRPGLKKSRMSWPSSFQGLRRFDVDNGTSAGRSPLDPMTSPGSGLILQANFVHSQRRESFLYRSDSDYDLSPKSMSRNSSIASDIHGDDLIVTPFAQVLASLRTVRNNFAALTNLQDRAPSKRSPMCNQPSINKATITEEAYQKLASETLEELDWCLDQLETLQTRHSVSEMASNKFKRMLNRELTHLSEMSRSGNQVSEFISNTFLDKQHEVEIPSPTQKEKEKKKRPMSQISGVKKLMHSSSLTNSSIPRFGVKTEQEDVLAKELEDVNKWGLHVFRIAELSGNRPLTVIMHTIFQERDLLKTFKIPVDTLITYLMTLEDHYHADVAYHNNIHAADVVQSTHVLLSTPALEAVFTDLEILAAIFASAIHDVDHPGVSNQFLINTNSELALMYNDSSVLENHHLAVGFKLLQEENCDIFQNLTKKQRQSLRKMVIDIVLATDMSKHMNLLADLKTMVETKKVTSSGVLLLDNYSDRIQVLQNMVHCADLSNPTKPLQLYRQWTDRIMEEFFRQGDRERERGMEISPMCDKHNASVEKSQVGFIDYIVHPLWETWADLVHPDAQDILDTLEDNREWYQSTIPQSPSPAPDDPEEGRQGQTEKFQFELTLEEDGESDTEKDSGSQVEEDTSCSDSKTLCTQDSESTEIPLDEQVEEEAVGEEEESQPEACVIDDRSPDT
Sequence of 3',5'-cyclic-AMP phosphodiesterase 4A (P27815 whole entry): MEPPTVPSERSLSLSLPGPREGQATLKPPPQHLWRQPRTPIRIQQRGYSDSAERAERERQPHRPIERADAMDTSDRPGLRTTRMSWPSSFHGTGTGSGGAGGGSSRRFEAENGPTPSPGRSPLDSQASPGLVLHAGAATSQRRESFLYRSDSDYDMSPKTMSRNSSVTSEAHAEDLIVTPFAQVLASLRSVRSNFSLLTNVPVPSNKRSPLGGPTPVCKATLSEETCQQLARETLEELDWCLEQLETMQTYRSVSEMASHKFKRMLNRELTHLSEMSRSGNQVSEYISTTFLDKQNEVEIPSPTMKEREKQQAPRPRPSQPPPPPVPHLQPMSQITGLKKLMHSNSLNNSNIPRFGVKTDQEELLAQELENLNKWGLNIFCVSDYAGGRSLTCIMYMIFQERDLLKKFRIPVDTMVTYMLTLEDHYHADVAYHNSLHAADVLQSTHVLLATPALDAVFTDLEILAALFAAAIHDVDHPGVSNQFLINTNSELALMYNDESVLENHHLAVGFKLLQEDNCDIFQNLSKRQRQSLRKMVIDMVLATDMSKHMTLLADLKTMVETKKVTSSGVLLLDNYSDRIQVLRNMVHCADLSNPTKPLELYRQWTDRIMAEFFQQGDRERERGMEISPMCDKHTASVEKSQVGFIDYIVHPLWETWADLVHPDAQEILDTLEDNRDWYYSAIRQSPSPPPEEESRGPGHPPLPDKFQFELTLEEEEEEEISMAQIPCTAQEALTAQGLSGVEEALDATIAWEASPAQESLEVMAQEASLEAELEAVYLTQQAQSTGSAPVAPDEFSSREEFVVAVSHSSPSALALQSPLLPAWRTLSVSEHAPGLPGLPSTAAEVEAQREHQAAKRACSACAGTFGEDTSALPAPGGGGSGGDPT
Sequence of Dual specificity calcium/calmodulin-dependent 3',5'-cyclic nucleotide phosphodiesterase 1C (Q14123 whole entry): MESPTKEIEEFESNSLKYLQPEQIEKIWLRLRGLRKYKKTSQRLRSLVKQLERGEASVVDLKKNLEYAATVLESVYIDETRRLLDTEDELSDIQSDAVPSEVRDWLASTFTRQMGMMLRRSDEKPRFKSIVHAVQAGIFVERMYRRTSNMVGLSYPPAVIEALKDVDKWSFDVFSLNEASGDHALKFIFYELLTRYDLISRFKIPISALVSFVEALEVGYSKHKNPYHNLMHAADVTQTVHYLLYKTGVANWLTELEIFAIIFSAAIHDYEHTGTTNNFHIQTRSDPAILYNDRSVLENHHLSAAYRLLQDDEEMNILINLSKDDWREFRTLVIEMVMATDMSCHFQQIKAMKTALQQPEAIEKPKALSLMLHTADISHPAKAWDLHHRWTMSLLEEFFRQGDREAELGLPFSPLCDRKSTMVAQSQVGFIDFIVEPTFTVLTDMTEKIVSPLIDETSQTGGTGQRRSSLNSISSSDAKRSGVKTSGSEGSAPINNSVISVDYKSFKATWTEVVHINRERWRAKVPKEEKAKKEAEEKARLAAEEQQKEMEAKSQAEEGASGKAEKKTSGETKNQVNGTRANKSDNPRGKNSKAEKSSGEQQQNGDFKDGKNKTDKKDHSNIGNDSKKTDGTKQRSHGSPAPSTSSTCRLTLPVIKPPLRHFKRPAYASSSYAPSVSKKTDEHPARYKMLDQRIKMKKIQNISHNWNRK
Sequence of cGMP-inhibited 3',5'-cyclic phosphodiesterase 3A (Q14432 whole entry): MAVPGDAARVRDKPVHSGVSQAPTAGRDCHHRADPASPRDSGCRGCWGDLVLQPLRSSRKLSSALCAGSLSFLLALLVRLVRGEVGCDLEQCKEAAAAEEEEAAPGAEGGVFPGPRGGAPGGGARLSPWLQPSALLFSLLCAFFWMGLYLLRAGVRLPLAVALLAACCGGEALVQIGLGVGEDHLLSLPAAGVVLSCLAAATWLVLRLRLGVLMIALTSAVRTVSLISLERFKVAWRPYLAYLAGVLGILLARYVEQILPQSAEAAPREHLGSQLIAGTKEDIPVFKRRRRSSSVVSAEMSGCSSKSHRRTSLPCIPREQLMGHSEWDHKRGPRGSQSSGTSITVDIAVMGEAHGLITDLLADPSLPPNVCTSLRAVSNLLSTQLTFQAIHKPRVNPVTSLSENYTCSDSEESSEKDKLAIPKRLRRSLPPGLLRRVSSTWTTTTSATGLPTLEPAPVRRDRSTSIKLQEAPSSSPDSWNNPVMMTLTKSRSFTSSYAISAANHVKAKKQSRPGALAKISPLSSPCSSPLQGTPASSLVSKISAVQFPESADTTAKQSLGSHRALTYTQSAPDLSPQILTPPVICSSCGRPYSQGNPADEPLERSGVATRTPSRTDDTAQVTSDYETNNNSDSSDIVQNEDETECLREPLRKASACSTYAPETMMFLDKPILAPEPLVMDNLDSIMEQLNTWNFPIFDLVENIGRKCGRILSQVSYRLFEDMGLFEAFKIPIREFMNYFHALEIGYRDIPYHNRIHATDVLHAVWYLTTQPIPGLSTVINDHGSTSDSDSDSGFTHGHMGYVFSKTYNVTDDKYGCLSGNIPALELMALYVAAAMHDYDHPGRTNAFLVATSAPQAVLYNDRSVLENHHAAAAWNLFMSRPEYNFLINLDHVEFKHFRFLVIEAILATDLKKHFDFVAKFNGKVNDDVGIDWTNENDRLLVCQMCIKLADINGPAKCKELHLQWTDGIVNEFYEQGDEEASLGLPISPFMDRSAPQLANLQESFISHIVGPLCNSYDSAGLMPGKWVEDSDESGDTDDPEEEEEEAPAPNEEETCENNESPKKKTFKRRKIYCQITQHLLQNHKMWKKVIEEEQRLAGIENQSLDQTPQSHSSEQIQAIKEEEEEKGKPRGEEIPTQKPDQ
Sequence of 3',5'-cyclic-AMP phosphodiesterase 4B (Q07343 whole entry): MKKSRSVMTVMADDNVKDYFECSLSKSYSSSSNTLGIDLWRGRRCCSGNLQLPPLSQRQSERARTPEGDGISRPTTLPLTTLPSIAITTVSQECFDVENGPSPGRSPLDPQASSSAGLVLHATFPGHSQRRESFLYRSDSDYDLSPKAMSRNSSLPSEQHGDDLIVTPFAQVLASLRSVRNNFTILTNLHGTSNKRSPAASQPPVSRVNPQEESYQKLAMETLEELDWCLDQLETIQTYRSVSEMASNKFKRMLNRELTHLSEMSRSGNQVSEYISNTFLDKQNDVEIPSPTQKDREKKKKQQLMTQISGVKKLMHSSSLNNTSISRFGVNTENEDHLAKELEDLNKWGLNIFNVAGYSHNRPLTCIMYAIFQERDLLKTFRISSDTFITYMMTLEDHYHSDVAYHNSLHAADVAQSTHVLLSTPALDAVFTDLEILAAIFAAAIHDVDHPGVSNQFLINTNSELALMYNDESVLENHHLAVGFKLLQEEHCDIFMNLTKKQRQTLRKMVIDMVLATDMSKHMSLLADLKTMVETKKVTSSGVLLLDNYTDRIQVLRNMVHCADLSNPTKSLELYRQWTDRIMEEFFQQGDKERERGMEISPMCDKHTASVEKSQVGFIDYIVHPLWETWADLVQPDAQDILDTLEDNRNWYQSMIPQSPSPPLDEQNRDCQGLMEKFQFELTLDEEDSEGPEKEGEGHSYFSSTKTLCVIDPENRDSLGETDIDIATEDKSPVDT

IC50 [1]: 970 nM
IC50 [2]: 530 nM
IC50 [3]: 7.81 µM
IC50 [4]: 0.79 µM
SMILES: CC(C)c1nn(C)c2c(=O)[nH]c(Cc3ccccc3OCCN3CCOCC3)nc12

IC50 [1]: 3100 nM
IC50 [2]: 19 nM
IC50 [3]: > 10 µM
IC50 [4]: > 10 µM
SMILES: CC(C)c1[nH]nc2c(=O)[nH]c(C[C@@H]3CCCC[C@H]3NC(=O)CC3CCOCC3)nc12

IC50 [5]: > 10 µM
IC50 [6]: > 10 µM
IC50 [8]: > 10 µM
IC50 [1]: 1130 nM
IC50 [9]: > 10 µM
IC50 [10]: > 10 µM
IC50 [2]: 41 nM
IC50 [11]: 5200 nM
IC50 [12]: 8.2 µM
Cp(f) (Mus musculus [14]; mouse, in vivo, po, 100 mg/kg, 3 h): 140 nM
IC50 [15]: > 10 µM
IC50 [18]: > 10 µM
IC50 [20]: > 10 µM
IC50 [3]: 4.95 µM
IC50 [23]: > 10 µM
IC50 [24]: > 10 µM
IC50 [4]: 3.9 µM
Cp(f) (Mus musculus [25]; mouse, in vivo, po, 500 mg/kg, 3 h): 361 nM
Cp(f) (Mus musculus [27]; mouse, in vivo, po, 250 mg/kg, 3 h): 243 nM
IC50 [28]: > 10 µM
IC50 [29]: > 10 µM
IC50 [30]: > 10 µM
SMILES: CC(C)c1n[nH]c2c(=O)[nH]c(Cc3ccccc3OCCN3CCOCC3)nc12
Activity (Mus musculus [7]): -59%
Activity (Mus musculus [13]): -35%
Activity (Mus musculus [16]): -11%
Activity (Mus musculus [17]): -4.3%
Activity (Mus musculus [19]): -35%
Activity (Mus musculus [21]): -32%
Activity (Mus musculus [22]): -40%
Activity (Mus musculus [26]): -55%
Activity (Mus musculus [31]): -6.4%

IC50 [1]: 2050 nM
IC50 [2]: 87 nM
IC50 [3]: > 10 µM
IC50 [4]: > 10 µM
SMILES: CC(C)c1n[nH]c2c(=O)[nH]c(C[C@@H]3CCCC[C@H]3OCCN3CCOCC3)nc12

IC50 [1]: 7600 nM
IC50 [2]: 23 nM
IC50 [3]: > 10 µM
IC50 [4]: > 10 µM
SMILES: Cc1ccc(N[C@@H]2CCCC[C@H]2Cc2nc3c(C(C)C)[nH]nc3c(=O)[nH]2)nn1

IC50 [1]: 4 nM
IC50 [3]: 0.038 µM
IC50 [4]: 0.054 µM
SMILES: CC(C)c1n[nH]c2c(=O)[nH]c(Cc3cccc(Cl)c3)nc12

IC50 [1]: 4200 nM
IC50 [2]: 46 nM
IC50 [3]: > 10 µM
IC50 [4]: > 10 µM
Papp [32]: 0.7 ×10⁻⁶ cm/s
SMILES: CC(C)c1[nH]nc2c(=O)[nH]c(C[C@@H]3CCCC[C@H]3NC(=O)NCCCN3CCOCC3)nc12

IC50 [5]: > 10 µM
IC50 [6]: > 10 µM
IC50 [8]: > 10 µM
IC50 [1]: 4400 nM
IC50 [9]: > 10 µM
IC50 [10]: > 10 µM
IC50 [2]: 35 nM
IC50 [11]: 1500 nM
IC50 [12]: > 10 µM
IC50 [15]: > 10 µM
IC50 [18]: 8.4 µM
IC50 [20]: > 10 µM
IC50 [3]: 9.8 µM
IC50 [23]: > 10 µM
IC50 [24]: > 10 µM
IC50 [4]: 7.7 µM
IC50 [28]: > 10 µM
IC50 [29]: > 10 µM
IC50 [30]: > 10 µM
SMILES: CC(C)c1n[nH]c2c(=O)[nH]c(C[C@@H]3CCCC[C@H]3Nc3ncccn3)nc12

IC50 [1]: 520 nM
IC50 [2]: 56 nM
IC50 [3]: 2.65 µM
IC50 [4]: 2.5 µM
Papp [32]: 10.8 ×10⁻⁶ cm/s
SMILES: CC(C)c1n[nH]c2c(=O)[nH]c(Cc3ccccc3OC(F)(F)F)nc12

IC50 [1]: 1340 nM
IC50 [2]: 82 nM
IC50 [3]: 2.63 µM
IC50 [4]: 1.43 µM
SMILES: CC(C)c1n[nH]c2c(=O)[nH]c(Cc3ccccc3OCc3ccccc3)nc12

IC50 [1]: > 10000 nM
IC50 [2]: 36 nM
IC50 [3]: > 10 µM
IC50 [4]: > 10 µM
SMILES: CC(C)c1n[nH]c2c(=O)[nH]c(C[C@@H]3CCCC[C@H]3NC(=O)CN3CCCC3)nc12

IC50 [5]: > 1 µM
IC50 [6]: > 1 µM
IC50 [8]: > 1 µM
IC50 [1]: > 10000 nM
IC50 [9]: > 1 µM
IC50 [10]: > 1 µM
IC50 [2]: 7 nM
IC50 [11]: 370 nM
IC50 [12]: > 1 µM
clearance (in vivo): 19.8 mL/min/kg
IC50 (Mus musculus [14]; Mus musculus, Plasma): > 1000 nM
IC50 [15]: > 1 µM
IC50 [18]: > 1 µM
IC50 [20]: > 1 µM
Vd [33]: 0.12 L/kg
IC50 [3]: > 10 µM
IC50 [23]: > 1 µM
bioavailability [34]: 100%
IC50 [24]: > 1 µM
IC50 [4]: > 10 µM
IC50 (Mus musculus [25]; Mus musculus, Plasma): > 1000 nM
IC50 (Mus musculus [27]; Mus musculus, Plasma): > 1000 nM
IC50 [28]: > 1 µM
IC50 [29]: > 1 µM
IC50 [30]: > 1 µM
SMILES: CC(C)c1n[nH]c2c(=O)[nH]c(C[C@@H]3CCCC[C@H]3Nc3ncc(C(=O)O)c(C(F)(F)F)n3)nc12
